Data set [1] is described as follows: Microsomal stability in human liver microsomes assessed as half life at […] and measured upto 60 mins by LC-MS/MS analysis. The format is ADME, Microsome. (Liver microsomes are vesicles of endoplasmic reticulum, rich in cytochrome P450 enzymes.)
The subject of data set [2] is HEK293. The data set can be described thus: Induction of apoptosis in Wnt-independent human HEK293 cells assessed as late apoptotic cells at 10 uM incubated for 24 hrs by Annexin V-Alexa Fluor 647/PI staining based flow cytomtery (Rvb=10.5%). The format is functional.
The test system of data set [3] is HEK293. The data set can be described thus: Induction of apoptosis in Wnt-independent human HEK293 cells assessed as late apoptotic cells at 20 uM incubated for 24 hrs by Annexin V-Alexa Fluor 647/PI staining based flow cytomtery (Rvb=10.5%). The format is functional.
In another data set the test system is HCT-116. The data set can be described thus: Induction of apoptosis in Wnt-dependent human HCT-116 cells assessed as late apoptotic cells at 10 uM incubated for 24 hrs by Annexin V-Alexa Fluor 647/PI staining based flow cytomtery (Rvb=14.7%). Type of data set: functional.
Data set [4] concerns CT26. The data set can be described thus: Induction of apoptosis in Wnt-dependent mouse CT26 cells assessed as early apoptotic cells at 20 uM incubated for 24 hrs by Annexin V-Alexa Fluor 647/PI staining based flow cytomtery (Rvb=18.3%). Type of data set: functional.
Data set [5] can be described thus: Toxicity in BALB/c mouse xenografted with mouse CT26 cells assessed as body weight loss at 30 mg/kg, ip QD and measured upto 9 days. Type of data set: organism-based. The conditions noted are these: in vivo, 216 h, time < 9 day.
Data set [6] is described as follows: Toxicity in BALB/c mouse xenografted with mouse CT26 cells assessed as pathological changes in kidney at 30 mg/kg, ip QD by hematoxylin and eosin staining based microscopic analysis. Type of data set: organism-based. The note with it: in vivo.
Data set [7] can be described thus: Toxicity in BALB/c mouse xenografted with mouse CT26 cells assessed as pathological changes in bone marrow at 30 mg/kg, ip QD in presence of anti-PD-1 antibody cotreatment at 10 mg/kg,ip BIW by hematoxylin and eosin staining based microscopic analysis. The format is organism-based. The note with it: in vivo.
A short description of data set [8]: Clearance in Sprague-Dawley rat at 21 mg/kg, ip and measured upto 24 hrs by LC-MS analysis. Type of data set: ADME, organism-based. The note with it: in vivo.
Data set [9] has as its system CT26. The data set can be described thus: Synergistic antitumor activity in mouse CT26 cells xenografted in BALB/c mouse assessed as increase in IFNgamma-positive CD8+ T cell infiltration into tumor at 30 mg/kg, ip QD in presence of anti-PD-1 antibody cotreatment at 10 mg/kg,ip BIW by flow cytometry. The format is functional, organism-based.
For data set [10], the system named is CT26. The data set can be described thus: Antitumor activity in mouse CT26 cells xenografted in BALB/c mouse assessed as increase in Cd8 mRNA expression level in tumor at 30 mg/kg, ip QD by qRT-PCR analysis. Type of data set: functional, organism-based. (Real-time PCR tracks product formation cycle by cycle.)
The subject of data set [11] is CT26. The data set can be described thus: Synergistic antitumor activity in mouse CT26 cells xenografted in BALB/c mouse assessed as increase in IFNG mRNA expression level in tumor at 30 mg/kg, ip QD in presence of anti-PD-1 antibody cotreatment at 10 mg/kg,ip BIW by qRT-PCR analysis. The format is functional, organism-based.
Data set [12] concerns CT26. The conditions noted are these: Mus musculus, BALB/c, dose 30.0 mg/kg, route ip.
Description: In vivo inhibition of Wnt signaling pathway in mouse CT26 cells implanted in BALB/c mouse assessed as reduction in Cd44 mRNA expression level in tumor at 30 mg/kg, ip QD by qRT-PCR analysis

The source made the active and inactive calls. The calls are words filed in the database; no cut-off is given here.

The term half-life denotes how long it takes for the measured level to halve. As a reminder, the CL/F is clearance divided by bioavailability, as obtained after extravascular dosing. On to `CC(C)c1ccc(-c2cccc(S(=O)(=O)N3CCCC(c4cccc(OC(C)(C)C(=O)NS(=O)(=O)c5ccc(C(F)(F)F)cc5)c4)C3)c2)cc1` (stereo not drawn), for which the half-life in data set [1] came out at 32.1 min. The Activity was 14.9% with HEK293 [2]; 16.6% with HEK293 [3]; 21.5% in the data set with HCT-116; 28% with CT26 [4]; “Non-Toxic” in data set [5]; “Non-Toxic” in [6]. Further, the Activity entry in data set [7] is on record as “Non-Toxic”. The same molecule had a CL/F in data set [8] of 20.1 mL/min/kg. Besides, the outcome in the data set with CT26 [9], with CT26 [10] and in the data set with CT26 [11] was Active. Further, the inhibition result with CT26 [12] is “Active”.

These data come from ChEMBL document CHEMBL5316313, “Discovery of Novel 3-Phenylpiperidine Derivatives Targeting the β-Catenin/B-Cell Lymphoma 9 Interaction as a Single Agent and in Combination with the Anti-PD-1 Antibody for the Treatment of Colorectal Cancer” (J Med Chem, 2023).
